# Measurements published in PubChem BioAssay (NCI).
#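 Five compound concentrations were applied to cells in 96-well plates for 48 hours; endpoints were derived by simple linear interpolation of the resulting dose-response curve. GI50: concentration for 50% inhibition of growth. TGI denotes the concentration required for complete inhibition of growth.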
# Legend:
# Test in all cases: NCI-60 cell line screen, 48 h
# MDA-MB-435 = test system: MDA-MB-435
# HCT-116 colon = test system: HCT-116 colon
# UO-31 renal = test system: UO-31 renal
# UACC-62 melanoma = test system: UACC-62 melanoma
# SW-620 colon = test system: SW-620 colon
# SK-MEL-2 melanoma = test system: SK-MEL-2 melanoma
# SF-268 CNS = test system: SF-268 CNS
# SK-OV-3 ovarian = test system: SK-OV-3 ovarian
# HOP-92 NSCLC = test system: HOP-92 NSCLC
# A498 renal = test system: A498 renal
# OVCAR-3 ovarian = test system: OVCAR-3 ovarian
# SF-539 CNS = test system: SF-539 CNS
# EKVX NSCLC = test system: EKVX NSCLC
# MCF7 breast = test system: MCF7 breast
# MALME-3M melanoma = test system: MALME-3M melanoma
# OVCAR-8 ovarian = test system: OVCAR-8 ovarian
# HT29 colon = test system: HT29 colon
# NCI-H226 lung = test system: NCI-H226 lung
# LOX IMVI melanoma = test system: LOX IMVI melanoma
# SR leukemia = test system: SR leukemia
# MDA-MB-231 breast = test system: MDA-MB-231 breast
# NCI-H522 lung = test system: NCI-H522 lung
# SNB-75 CNS = test system: SNB-75 CNS
# HCC-2998 colon = test system: HCC-2998 colon
# MOLT-4 leukemia = test system: MOLT-4 leukemia
# A549 NSCLC = test system: A549 NSCLC
# NCI-H460 lung = test system: NCI-H460 lung
# ACHN renal = test system: ACHN renal
# SF-295 CNS = test system: SF-295 CNS
# DU-145 prostate = test system: DU-145 prostate
# NCI/ADR-RES ovarian = test system: NCI/ADR-RES ovarian
# OVCAR-4 ovarian = test system: OVCAR-4 ovarian
# SK-MEL-28 melanoma = test system: SK-MEL-28 melanoma
# RPMI-8226 leukemia = test system: RPMI-8226 leukemia
# M14 melanoma = test system: M14 melanoma
# SNB-19 CNS = test system: SNB-19 CNS
# 786-0 renal = test system: 786-0 renal
# SN12C renal = test system: SN12C renal
# OVCAR-5 ovarian = test system: OVCAR-5 ovarian
# HL-60(TB) leukemia = test system: HL-60(TB) leukemia
# U251 CNS = test system: U251 CNS
# COLO 205 colon = test system: COLO 205 colon
# SK-MEL-5 melanoma = test system: SK-MEL-5 melanoma
# HS 578T breast = test system: HS 578T breast
# KM12 colon = test system: KM12 colon
# HCT-15 colon = test system: HCT-15 colon
# HOP-62 NSCLC = test system: HOP-62 NSCLC
# IGROV1 ovarian = test system: IGROV1 ovarian
# UACC-257 melanoma = test system: UACC-257 melanoma
# K-562 leukemia = test system: K-562 leukemia
# CAKI-1 renal = test system: CAKI-1 renal
# PC-3 prostate = test system: PC-3 prostate
# BT-549 breast = test system: BT-549 breast
# TK-10 renal = test system: TK-10 renal
# RXF 393 renal = test system: RXF 393 renal
# NCI-H23 lung = test system: NCI-H23 lung
# T-47D breast = test system: T-47D breast
# CCRF-CEM leukemia = test system: CCRF-CEM leukemia
structure (smiles),measurement,setting,value
COc1cc(/C=C/c2cc(=O)cc(/C=C/c3ccc(O)c(OC)c3)o2)ccc1O,TGI,MDA-MB-435,> 100000 nM
same,TGI,HCT-116 colon,> 100000 nM
same,TGI,UO-31 renal,> 100000 nM
same,TGI,UACC-62 melanoma,> 100000 nM
same,TGI,SW-620 colon,> 100000 nM
same,TGI,SK-MEL-2 melanoma,> 100000 nM
same,TGI,SF-268 CNS,> 100000 nM
same,TGI,SK-OV-3 ovarian,> 100000 nM
same,TGI,HOP-92 NSCLC,> 100000 nM
same,TGI,A498 renal,> 100000 nM
same,TGI,OVCAR-3 ovarian,> 100000 nM
same,TGI,SF-539 CNS,> 100000 nM
same,TGI,EKVX NSCLC,> 100000 nM
same,TGI,MCF7 breast,> 100000 nM
same,TGI,MALME-3M melanoma,> 100000 nM
same,TGI,OVCAR-8 ovarian,> 100000 nM
same,TGI,HT29 colon,> 100000 nM
same,TGI,NCI-H226 lung,98300 nM
same,TGI,LOX IMVI melanoma,> 100000 nM
same,TGI,SR leukemia,> 100000 nM
same,TGI,MDA-MB-231 breast,> 100000 nM
same,TGI,NCI-H522 lung,> 100000 nM
same,TGI,SNB-75 CNS,> 95000 nM
same,TGI,HCC-2998 colon,> 100000 nM
same,TGI,MOLT-4 leukemia,> 100000 nM
same,TGI,A549 NSCLC,> 100000 nM
same,TGI,NCI-H460 lung,> 100000 nM
same,TGI,ACHN renal,> 100000 nM
same,TGI,SF-295 CNS,> 100000 nM
same,TGI,DU-145 prostate,> 100000 nM
same,TGI,NCI/ADR-RES ovarian,> 100000 nM
same,TGI,OVCAR-4 ovarian,> 100000 nM
same,TGI,SK-MEL-28 melanoma,> 100000 nM
same,TGI,RPMI-8226 leukemia,> 20700 nM
same,TGI,M14 melanoma,> 100000 nM
same,TGI,SNB-19 CNS,> 100000 nM
same,TGI,786-0 renal,> 100000 nM
same,TGI,SN12C renal,> 100000 nM
same,TGI,OVCAR-5 ovarian,> 100000 nM
same,TGI,HL-60(TB) leukemia,> 100000 nM
same,TGI,U251 CNS,> 100000 nM
same,TGI,COLO 205 colon,> 100000 nM
same,TGI,SK-MEL-5 melanoma,> 100000 nM
same,TGI,HS 578T breast,> 100000 nM
same,TGI,KM12 colon,> 100000 nM
same,TGI,HCT-15 colon,> 100000 nM
same,TGI,HOP-62 NSCLC,> 63800 nM
same,TGI,IGROV1 ovarian,> 100000 nM
same,TGI,UACC-257 melanoma,> 100000 nM
same,TGI,K-562 leukemia,> 100000 nM
same,TGI,CAKI-1 renal,> 100000 nM
same,TGI,PC-3 prostate,> 100000 nM
same,TGI,BT-549 breast,> 100000 nM
same,TGI,TK-10 renal,> 100000 nM
same,TGI,RXF 393 renal,> 55200 nM
same,TGI,NCI-H23 lung,> 100000 nM
same,TGI,T-47D breast,> 93300 nM
CC1=C(C)C(=O)O[C@@H]([C@](C)(O)[C@]2(O)CC[C@@]3(O)[C@@H]4C[C@H]5O[C@]56CC=CC(=O)[C@]6(C)[C@H]4CC[C@]23C)C1,GI50,MDA-MB-435,54.1 nM
same,TGI,MDA-MB-435,1080 nM
same,GI50,HCT-116 colon,113 nM
same,TGI,HCT-116 colon,1090 nM
same,GI50,UO-31 renal,95.7 nM
same,TGI,UO-31 renal,1460 nM
same,GI50,UACC-62 melanoma,99.6 nM
same,TGI,UACC-62 melanoma,1570 nM
same,GI50,SW-620 colon,98.9 nM
same,TGI,SW-620 colon,1100 nM
same,GI50,SK-MEL-2 melanoma,76.1 nM
same,TGI,SK-MEL-2 melanoma,481 nM
same,GI50,SF-268 CNS,424 nM
same,TGI,SF-268 CNS,2350 nM
same,GI50,SK-OV-3 ovarian,909 nM
same,TGI,SK-OV-3 ovarian,18800 nM
same,GI50,HOP-92 NSCLC,65.1 nM
same,TGI,HOP-92 NSCLC,1910 nM
same,GI50,A498 renal,218 nM
same,TGI,A498 renal,784 nM
same,GI50,OVCAR-3 ovarian,66.7 nM
same,TGI,OVCAR-3 ovarian,405 nM
same,GI50,SF-539 CNS,272 nM
same,TGI,SF-539 CNS,1620 nM
same,GI50,MCF7 breast,66.8 nM
same,TGI,MCF7 breast,2800 nM
same,GI50,MALME-3M melanoma,382 nM
same,TGI,MALME-3M melanoma,3400 nM
same,GI50,OVCAR-8 ovarian,231 nM
same,TGI,OVCAR-8 ovarian,4860 nM
same,GI50,HT29 colon,66 nM
same,TGI,HT29 colon,1470 nM
same,GI50,NCI-H226 lung,453 nM
same,TGI,NCI-H226 lung,4490 nM
same,GI50,LOX IMVI melanoma,188 nM
same,TGI,LOX IMVI melanoma,1380 nM
same,GI50,SR leukemia,55.2 nM
same,TGI,SR leukemia,> 100000 nM
same,GI50,MDA-MB-231 breast,394 nM
same,TGI,MDA-MB-231 breast,7660 nM
same,GI50,NCI-H522 lung,100 nM
same,TGI,NCI-H522 lung,534 nM
same,GI50,SNB-75 CNS,32.2 nM
same,TGI,SNB-75 CNS,1200 nM
same,GI50,HCC-2998 colon,772 nM
same,TGI,HCC-2998 colon,2170 nM
same,GI50,MOLT-4 leukemia,78.6 nM
same,TGI,MOLT-4 leukemia,35200 nM
same,GI50,A549 NSCLC,568 nM
same,TGI,A549 NSCLC,5930 nM
same,GI50,NCI-H460 lung,618 nM
same,TGI,NCI-H460 lung,2400 nM
same,GI50,ACHN renal,290 nM
same,TGI,ACHN renal,1450 nM
same,GI50,SF-295 CNS,620 nM
same,TGI,SF-295 CNS,14700 nM
same,GI50,DU-145 prostate,519 nM
same,TGI,DU-145 prostate,10900 nM
same,GI50,NCI/ADR-RES ovarian,2760 nM
same,TGI,NCI/ADR-RES ovarian,> 63800 nM
same,GI50,CCRF-CEM leukemia,163 nM
same,GI50,OVCAR-4 ovarian,121 nM
same,TGI,OVCAR-4 ovarian,15800 nM
same,GI50,SK-MEL-28 melanoma,233 nM
same,TGI,SK-MEL-28 melanoma,1920 nM
same,GI50,RPMI-8226 leukemia,59.3 nM
same,TGI,RPMI-8226 leukemia,1780 nM
same,GI50,M14 melanoma,101 nM
same,TGI,M14 melanoma,1670 nM
same,GI50,SNB-19 CNS,395 nM
same,TGI,SNB-19 CNS,13700 nM
same,GI50,786-0 renal,284 nM
same,TGI,786-0 renal,1960 nM
same,GI50,SN12C renal,411 nM
same,TGI,SN12C renal,3630 nM
same,GI50,OVCAR-5 ovarian,299 nM
same,TGI,OVCAR-5 ovarian,2510 nM
same,GI50,HL-60(TB) leukemia,41.2 nM
same,TGI,HL-60(TB) leukemia,1480 nM
same,GI50,U251 CNS,483 nM
same,TGI,U251 CNS,2230 nM
same,GI50,COLO 205 colon,39.8 nM
same,TGI,COLO 205 colon,176 nM
same,GI50,SK-MEL-5 melanoma,269 nM
same,TGI,SK-MEL-5 melanoma,1430 nM
same,GI50,HS 578T breast,127 nM
same,TGI,HS 578T breast,2330 nM
same,GI50,KM12 colon,266 nM
same,TGI,KM12 colon,1570 nM
same,GI50,HCT-15 colon,152 nM
same,TGI,HCT-15 colon,1250 nM
same,GI50,HOP-62 NSCLC,292 nM
same,TGI,HOP-62 NSCLC,3390 nM
same,GI50,IGROV1 ovarian,283 nM
same,TGI,IGROV1 ovarian,2590 nM
same,GI50,UACC-257 melanoma,172 nM
same,TGI,UACC-257 melanoma,2330 nM
same,GI50,K-562 leukemia,90.7 nM
same,TGI,K-562 leukemia,> 27800 nM
same,GI50,CAKI-1 renal,180 nM
same,TGI,CAKI-1 renal,2110 nM
same,GI50,PC-3 prostate,247 nM
same,TGI,PC-3 prostate,5970 nM
same,GI50,BT-549 breast,335 nM
same,TGI,BT-549 breast,1450 nM
same,GI50,TK-10 renal,48.2 nM
same,TGI,TK-10 renal,995 nM
same,GI50,RXF 393 renal,169 nM
same,TGI,RXF 393 renal,620 nM
same,GI50,NCI-H23 lung,254 nM
same,TGI,NCI-H23 lung,2930 nM
same,GI50,T-47D breast,111 nM
same,TGI,T-47D breast,1630 nM
